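Five compound concentrations were applied to cells in 96-well plates for 48 hours; endpoints were derived by simple linear interpolation of the resulting dose-response curve. Definition used: TGI = concentration required for complete inhibition of growth.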
Tests used:
Assay in all cases: inhibition of tumour cell growth, NCI panel, 48 h
[1] = tested on: 786-0 renal
[2] = tested on: DMS 273 small cell lung
[3] = tested on: K-562 leukemia
[4] = tested on: LXFL 529 NSCLC
[5] = tested on: OVCAR-3 ovarian
[6] = tested on: RPMI-8226 leukemia
[7] = tested on: SK-MEL-28 melanoma
[8] = tested on: UO-31 renal
[9] = tested on: DU-145 prostate
[10] = tested on: HS 578T breast

## COc1ccc(OC)c(/C(C)=N/NC(N)=S)c1
[1]
  TGI: > 100 µM
[2]
  TGI: > 100 µM
[3]
  TGI: > 100 µM
[4]
  TGI: > 100 µM
[5]
  TGI: > 100 µM
[6]
  TGI: > 100 µM
[7]
  TGI: > 100 µM
[8]
  TGI: > 100 µM

## C=C(COC(C)=O)CC(OC(C)=O)c1ccccc1 (centres undefined)
[1]
  TGI: > 100 µM
[2]
  TGI: > 100 µM
[3]
  TGI: > 100 µM
[4]
  TGI: > 100 µM
[5]
  TGI: > 100 µM
[6]
  TGI: > 100 µM
[7]
  TGI: > 100 µM
[8]
  TGI: > 100 µM

## C=C1C(=O)O[C@@H]2C[C@@H](C)[C@@H]3C=CC(=O)[C@@]3(C)[C@@H](OC(=O)CC(=O)O[C@H]3[C@@H]4C(=C)C(=O)O[C@@H]4C[C@@H](C)[C@@H]4C=CC(=O)[C@]43C)[C@H]12
[1]
  TGI: 0.0355 µM
[2]
  TGI: 0.122 µM
[9]
  TGI: 12.9 µM
[3]
  TGI: < 0.0322 µM
[4]
  TGI: 0.0343 µM
[5]
  TGI: 0.159 µM
[6]
  TGI: 0.0866 µM
[7]
  TGI: 0.11 µM
[8]
  TGI: 0.271 µM

## CCCN(CCCC(NC(C)=O)C(=O)NCc1ccccc1)C(=O)N(CCCl)N=O (centres undefined)
[1]
  TGI: 19.1 µM
[2]
  TGI: 24.6 µM
[9]
  TGI: > 100 µM
[10]
  TGI: > 100 µM
[3]
  TGI: 87.6 µM
[4]
  TGI: 34 µM
[5]
  TGI: 53.3 µM
[6]
  TGI: 69 µM
[7]
  TGI: 35.1 µM
[8]
  TGI: 50 µM

## CC(C)CC(NC(=O)c1cccc(O)c1O)C(=O)NCc1cc(CNC(=O)C(CC(C)C)NC(=O)c2cccc(O)c2O)cc(CNC(=O)C(CC(C)C)NC(=O)c2cccc(O)c2O)c1 (centres undefined)
[1]
  TGI: > 100 µM
[2]
  TGI: 41.9 µM
[3]
  TGI: > 100 µM
[4]
  TGI: 13.8 µM
[5]
  TGI: 19.7 µM
[6]
  TGI: 21.8 µM
[7]
  TGI: 68.5 µM
[8]
  TGI: 70.1 µM

## CCCCCC[N+](C)(C)Cc1ccc(C[N+](C)(C)CCCCCC)cc1
[1]
  TGI: 18.1 µM
[2]
  TGI: 3.73 µM
[3]
  TGI: 5.65 µM
[4]
  TGI: 15.4 µM
[5]
  TGI: 14.4 µM
[6]
  TGI: 9.96 µM
[7]
  TGI: 23.6 µM
[8]
  TGI: 29.8 µM

## CC(C)=CC(=O)C/C(=N\NC(N)=S)C(=O)Nc1ccc(Cl)cc1
[1]
  TGI: > 100 µM
[2]
  TGI: > 100 µM
[3]
  TGI: > 100 µM
[4]
  TGI: > 100 µM
[5]
  TGI: > 100 µM
[6]
  TGI: > 100 µM
[7]
  TGI: > 100 µM
[8]
  TGI: > 100 µM
